Values quoted from earlier work as cited in US7105537B2, “2-substituted cyclic amines as calcium sensing receptor modulators” (Bristol-Myers Squibb Company, priority 2003, dated 2006).

Tests used:
[1] = test system: osteopenic ovariectomized (OVX) rats; details: oral administration, in the presence of an anti-resorptive agent
[2] = intravenous bolus injection
[3] = test system: postmenopausal women; details: placebo-controlled trial

## CC(C)(Cc1ccc2ccccc2c1)NC[C@@H](O)COc1cccc(Cl)c1C#N [NPS-2143]
[1]
  bone mass: increase in bone mas
[2]
  serum PTH: transient increase in serum PTH

## PTH peptide fragment (1–34): "the PTH peptide fragment (1–34) was shown to reduce the risk of spine fractures and non-traumatic, non-spine fractures" (SVSEIQLMHNLGKHLNSMERVEWLRKKLQDVHNF; Parathyroid hormone; UniProt P01270 32-65, looked up, fragment)
[3]
  reduction of the risk of non-traumatic, non-spine fractures: 54%
  reduction of the risk of spine fractures: 65%
